Laboratory results published in patent US20120276212A1, “COMPOSITION COMPRISING PLANT AND/OR FISH OILS AND NON-OXIDIZABLE FATTY ACID ENTITIES” (LIFE SCIENCE NUTRITION AS, priority 2004, published 2012).

Assays:
[1] = degradation time in vivo of ω-oxidation blocked analogue
Description: ω-oxidation is believed to be the main pathway for degradation of the fatty acid analogues as described with a block in the X position. Experiments were thus performed where R′ was changed to block ω-oxidation, by introducing a triple bond at the methyl end of the fatty acid analogue. […] This is important for the use of the fatty acid analogues in pharmaceutical preparation, as it may potentiate the effects of the β-oxidizable fatty acid analogues by further slowing down their breakdown.

[2] = system: mitochondrial β-oxidation in the liver; assay: activity of mitochondrial β-oxidation in the liver of fatty acid analogues; conditions: in vivo
Description: Although all fatty acid anagoges with an odd positioning of the β-oxidation blocker X away from the carboxylic end block β-oxidation, the extent of their biological effect may be variable. This is due to the difference in biological degradation time of the various compounds. The inventors have done experiments to show the effect of moving X further from the carboxylic fatty acid end. In these experiments the activity (in nmol/min/mg/protein) of mitochondrial β-oxidation in the liver of fatty acid analogues was measured with sulphur in the 3, 5 and 7 positions relative to the carboxyl end. The activities were 0.81 for sulphur in the 3rd position, 0.61 for sulphur in the 5th position, 0.58 for sulphur in the 7th position, and 0.47 for palmitic acid, the non β-oxidation blocking control. […] However, as the decline is great for going from the 3rd to 5th position, but small going from the 5th to 7th position, it is reasonable to assume that this decline will continue to be less as one moves out the chain, and thus that it will be very far out indeed before no effect (compared to the control) is seen at all.

degradation time in vivo [1] | Structure (SMILES) | activity of mitochondrial β-oxidation in the liver [2]
substantially increased degradation time | CC#CCCCCCCCCCCCSCC [3-thia-15-heptadecyn] | –
– | CCCCCCCCCCCCCCCC(=O)O [palmitic acid] | 0.47 nmol/min/mg/protein
